For orientation: EC50 means the concentration needed to bring the measured effect to its halfway point. The term AC50 denotes the concentration giving half of the maximal activity seen. Usually IC50 stands for the concentration that gives 50% inhibition.

The values below come from ChEMBL document CHEMBL1201862, “PubChem BioAssay data set” (2004).

Each structure is given as a SMILES string. Active and inactive are the calls of the source.

Test [1] deals with G-protein coupled receptor 55 (Homo sapiens, UniProt Q9Y2T6). Kind of test: selective activators of receptor GPR55 – imaging, U2OS cells, beta-arrestin-GFP redistribution, primary screen (AID 1961). In kind it is functional.
For test [2], the target named is T1, Replicative DNA helicase DnaB (Mycobacterium tuberculosis, UniProt P9WMR3).
T1 sequence (P9WMR3 whole entry): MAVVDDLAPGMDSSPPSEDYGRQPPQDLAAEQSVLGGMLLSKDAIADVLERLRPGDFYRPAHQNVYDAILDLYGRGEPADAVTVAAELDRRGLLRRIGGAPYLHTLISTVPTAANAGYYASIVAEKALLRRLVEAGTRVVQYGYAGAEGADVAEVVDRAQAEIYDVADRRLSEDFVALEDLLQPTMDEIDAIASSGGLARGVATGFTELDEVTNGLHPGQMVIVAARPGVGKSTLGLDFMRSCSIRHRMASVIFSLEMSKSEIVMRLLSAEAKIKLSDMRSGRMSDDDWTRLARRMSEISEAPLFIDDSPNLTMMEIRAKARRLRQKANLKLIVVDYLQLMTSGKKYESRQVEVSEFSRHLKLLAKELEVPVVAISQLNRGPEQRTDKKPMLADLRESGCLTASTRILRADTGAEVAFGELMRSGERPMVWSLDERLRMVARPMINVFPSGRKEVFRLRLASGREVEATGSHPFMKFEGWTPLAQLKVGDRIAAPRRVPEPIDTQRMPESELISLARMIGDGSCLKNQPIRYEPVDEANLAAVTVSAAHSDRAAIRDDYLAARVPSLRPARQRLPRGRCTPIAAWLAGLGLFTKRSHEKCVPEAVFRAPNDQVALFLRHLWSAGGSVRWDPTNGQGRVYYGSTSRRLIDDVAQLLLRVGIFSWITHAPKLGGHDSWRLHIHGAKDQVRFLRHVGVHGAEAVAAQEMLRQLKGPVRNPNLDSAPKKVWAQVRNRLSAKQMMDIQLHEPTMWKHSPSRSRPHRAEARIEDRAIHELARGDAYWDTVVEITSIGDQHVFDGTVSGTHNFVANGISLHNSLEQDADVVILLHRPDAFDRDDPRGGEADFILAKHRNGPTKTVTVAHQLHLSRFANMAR
Briefly: DnaB intein splicing inhibitors, dose response, biochemical, cell-free fluorescence (AID 449749). The test is classed as functional.

The next test addresses T2, Protein RecA (Mycobacterium tuberculosis, UniProt P9WHJ3).
T2 sequence (P9WHJ3 whole entry): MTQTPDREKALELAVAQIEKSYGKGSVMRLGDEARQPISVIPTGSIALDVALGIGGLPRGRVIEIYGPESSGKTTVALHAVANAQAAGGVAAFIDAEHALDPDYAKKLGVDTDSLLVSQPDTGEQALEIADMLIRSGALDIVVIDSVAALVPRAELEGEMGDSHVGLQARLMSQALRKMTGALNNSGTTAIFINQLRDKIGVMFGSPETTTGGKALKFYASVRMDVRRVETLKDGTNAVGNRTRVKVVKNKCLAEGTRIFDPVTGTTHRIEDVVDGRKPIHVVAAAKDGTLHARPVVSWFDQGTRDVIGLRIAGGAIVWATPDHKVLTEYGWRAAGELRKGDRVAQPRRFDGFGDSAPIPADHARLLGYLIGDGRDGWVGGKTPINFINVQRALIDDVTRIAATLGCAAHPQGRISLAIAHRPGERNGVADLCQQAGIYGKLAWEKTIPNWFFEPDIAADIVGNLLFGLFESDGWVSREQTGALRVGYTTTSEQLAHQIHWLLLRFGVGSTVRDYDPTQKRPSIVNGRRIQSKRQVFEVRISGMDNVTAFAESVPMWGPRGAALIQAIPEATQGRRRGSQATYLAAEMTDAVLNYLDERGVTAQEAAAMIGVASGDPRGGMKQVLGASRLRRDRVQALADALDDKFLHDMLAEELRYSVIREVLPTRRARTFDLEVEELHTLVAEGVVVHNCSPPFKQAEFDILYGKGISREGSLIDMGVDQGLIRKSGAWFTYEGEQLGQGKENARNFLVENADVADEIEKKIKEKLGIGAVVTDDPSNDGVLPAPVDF
Kind of test: Fluorescence Cell-Free Homogeneous Dose Retest to Identify Inhibitors of RecA-Intein Splicing Activity. [Related pubchem assays (depositor defined):AID2097, AID2223, AID489010, AID492950]. The test is classed as functional.

The next test addresses Mu-type opioid receptor (Homo sapiens, UniProt P35372). Kind of test: SAR Analysis of Antagonists of the MOR Receptor using an Image-Based Assay - Set 3. [Related pubchem assays (depositor defined):AID1777, AID1785, AID1786, AID1966, AID2133, AID2136, AID2284, AID2285, AID2420]. In kind it is functional.
The target in test [3] is Delta-type opioid receptor (Homo sapiens, UniProt P41143). Briefly: SAR Analysis of Antagonists of the DOR Receptor using an Image-Based Assay - Set 3. [Related pubchem assays (depositor defined):AID1777, AID1785]. In kind it is functional.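 Further: U2OS cells expressing DOR1 and beta-arrestin GFP stimulated with 100 nM SNC80; imaging of GFP-tagged beta-arrestin moving into spots after receptor activation.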
Test [4] deals with T3, Kappa-type opioid receptor (Homo sapiens, UniProt P41145). Briefly: SAR analysis of small molecule antagonists of the kappa opioid receptor via a luminescent beta-arrestin assay - Set 3. [Related pubchem assays (depositor defined):AID1777, AID1778, AID1785, AID1786, AID1966, AID2133, AID2136, AID2285, AID2495]. The test is classed as functional.
Test [5] has as its target T3, Kappa-type opioid receptor. Briefly: SAR analysis of Antagonists of the Kappa Opioid Receptor (KOR) using an Image-Based Assay - Set 3. [Related pubchem assays (depositor defined):AID1777, AID1785]. The test is classed as functional.
A further test has as its target Hexokinase (Trypanosoma brucei, UniProt Q38C41). Briefly: Confirmation assay for inhibitors of Trypanosoma brucei hexokinase 1-Analogue-first series. [Related pubchem assays (depositor defined):AID1430, AID1632, AID2516, AID2560, AID2579, AID2600, AID449725, AID492951]. In kind it is functional.
Test [6] has as its target T4, Short transient receptor potential channel 4 (Mus musculus, UniProt Q9QUQ5).
T4 sequence (Q9QUQ5 whole entry): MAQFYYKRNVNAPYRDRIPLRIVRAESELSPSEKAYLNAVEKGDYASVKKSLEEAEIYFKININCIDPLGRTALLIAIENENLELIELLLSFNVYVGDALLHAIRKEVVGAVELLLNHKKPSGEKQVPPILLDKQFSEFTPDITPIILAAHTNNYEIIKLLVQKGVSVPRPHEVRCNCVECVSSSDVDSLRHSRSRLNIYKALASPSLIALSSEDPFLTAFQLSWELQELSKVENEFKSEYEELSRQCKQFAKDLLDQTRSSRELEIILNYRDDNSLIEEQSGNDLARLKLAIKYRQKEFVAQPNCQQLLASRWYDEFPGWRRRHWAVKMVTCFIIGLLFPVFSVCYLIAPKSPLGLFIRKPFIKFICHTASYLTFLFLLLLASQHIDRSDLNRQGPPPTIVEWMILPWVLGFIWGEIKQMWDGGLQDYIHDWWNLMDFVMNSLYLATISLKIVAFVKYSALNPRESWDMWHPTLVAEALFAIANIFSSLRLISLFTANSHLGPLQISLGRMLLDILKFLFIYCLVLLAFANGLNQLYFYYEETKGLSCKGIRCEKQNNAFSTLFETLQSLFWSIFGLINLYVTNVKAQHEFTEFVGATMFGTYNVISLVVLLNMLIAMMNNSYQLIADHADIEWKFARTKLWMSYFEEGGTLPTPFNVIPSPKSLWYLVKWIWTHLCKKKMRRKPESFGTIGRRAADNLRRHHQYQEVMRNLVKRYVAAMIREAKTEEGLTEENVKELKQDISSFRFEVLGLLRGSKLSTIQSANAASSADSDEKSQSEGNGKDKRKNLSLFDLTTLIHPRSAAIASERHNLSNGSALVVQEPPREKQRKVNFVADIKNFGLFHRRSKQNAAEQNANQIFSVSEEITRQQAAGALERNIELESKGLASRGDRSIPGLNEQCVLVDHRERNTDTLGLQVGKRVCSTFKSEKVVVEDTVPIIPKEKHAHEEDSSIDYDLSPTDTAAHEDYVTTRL
Kind of test: potentiation of DAMGO-evoked TRPC4 calcium signal – cell-based, HEK293 TRPC4/mu-opioid, Fluo-4 calcium, EC20 DAMGO, dose response (AID 434941).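 Further: HEK293 cells coexpressing TRPC4 and mu opioid receptor stimulated by EC20 DAMGO.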 In kind it is functional.

The target of test [7] is T5, Dual specificity protein phosphatase 3 (Homo sapiens, UniProt P51452). Briefly: SAR VHR1 absorbance Assay for In Vitro dose response studies. [Related pubchem assays (depositor defined):AID1654, AID1661, AID1878, AID1992, AID2004].
In test [8] the target is T5, Dual specificity protein phosphatase 3. Briefly: SAR VHR1 Fluorescent Assay for In Vitro dose response studies. [Related pubchem assays (depositor defined):AID1654, AID1661, AID1878, AID1992, AID2004, AID2070, AID2085]. In kind it is functional.
The target in test [9] is T6, Tyrosine-protein phosphatase non-receptor type 7 (Homo sapiens, UniProt P35236).
T6 sequence (P35236 whole entry): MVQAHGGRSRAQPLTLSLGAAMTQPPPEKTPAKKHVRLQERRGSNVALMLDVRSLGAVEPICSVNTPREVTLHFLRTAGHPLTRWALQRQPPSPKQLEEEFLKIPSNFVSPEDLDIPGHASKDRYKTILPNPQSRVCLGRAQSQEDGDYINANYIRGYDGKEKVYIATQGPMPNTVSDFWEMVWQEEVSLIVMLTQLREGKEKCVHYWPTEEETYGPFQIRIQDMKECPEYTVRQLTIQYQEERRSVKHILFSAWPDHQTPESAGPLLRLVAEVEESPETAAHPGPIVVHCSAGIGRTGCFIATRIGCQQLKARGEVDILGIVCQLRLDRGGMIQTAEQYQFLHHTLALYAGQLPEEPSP
Briefly: redox-active compounds inhibiting HePTP phosphatase – biochemical, fluorescence, mechanism study (AID 2068). In kind it is functional.

The target in test [10] is T7, Dual specificity protein phosphatase 6 (Rattus norvegicus, UniProt Q64346).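 Further: confirmatory in vitro dose-response testing of MKP-3 inhibition; recombinant His-tagged MKP-3 made in E. coli BL21 with OMFP substrate.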
T7 sequence (Q64346 whole entry): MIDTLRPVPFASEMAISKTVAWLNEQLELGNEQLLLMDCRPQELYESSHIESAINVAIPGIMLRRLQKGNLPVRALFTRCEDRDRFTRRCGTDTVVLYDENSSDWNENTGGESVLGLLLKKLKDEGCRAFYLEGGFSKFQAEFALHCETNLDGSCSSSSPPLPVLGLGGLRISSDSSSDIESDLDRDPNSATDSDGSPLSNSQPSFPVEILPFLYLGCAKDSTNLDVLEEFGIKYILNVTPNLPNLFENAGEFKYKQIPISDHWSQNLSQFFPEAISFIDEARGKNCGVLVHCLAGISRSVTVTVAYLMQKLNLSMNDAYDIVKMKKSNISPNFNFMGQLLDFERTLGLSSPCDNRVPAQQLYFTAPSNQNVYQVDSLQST
In kind it is functional.

T5 sequence (P51452 whole entry): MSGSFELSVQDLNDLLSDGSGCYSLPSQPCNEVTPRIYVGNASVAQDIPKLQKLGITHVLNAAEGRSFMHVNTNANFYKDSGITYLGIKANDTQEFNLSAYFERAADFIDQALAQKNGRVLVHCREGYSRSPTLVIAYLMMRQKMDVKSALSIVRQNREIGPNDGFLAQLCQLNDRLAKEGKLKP
T3 sequence (P41145 whole entry): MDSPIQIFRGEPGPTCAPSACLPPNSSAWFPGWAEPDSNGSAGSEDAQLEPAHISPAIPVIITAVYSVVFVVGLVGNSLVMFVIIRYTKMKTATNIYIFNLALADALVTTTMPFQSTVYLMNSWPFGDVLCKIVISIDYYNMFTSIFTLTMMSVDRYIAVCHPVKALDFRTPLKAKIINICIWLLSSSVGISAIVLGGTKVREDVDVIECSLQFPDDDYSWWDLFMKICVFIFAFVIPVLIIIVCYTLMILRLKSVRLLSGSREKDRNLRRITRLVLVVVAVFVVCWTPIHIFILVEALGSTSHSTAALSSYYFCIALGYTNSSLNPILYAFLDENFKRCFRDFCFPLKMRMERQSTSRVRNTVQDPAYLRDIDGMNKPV
Chain of Mu-type opioid receptor (P35372 whole entry): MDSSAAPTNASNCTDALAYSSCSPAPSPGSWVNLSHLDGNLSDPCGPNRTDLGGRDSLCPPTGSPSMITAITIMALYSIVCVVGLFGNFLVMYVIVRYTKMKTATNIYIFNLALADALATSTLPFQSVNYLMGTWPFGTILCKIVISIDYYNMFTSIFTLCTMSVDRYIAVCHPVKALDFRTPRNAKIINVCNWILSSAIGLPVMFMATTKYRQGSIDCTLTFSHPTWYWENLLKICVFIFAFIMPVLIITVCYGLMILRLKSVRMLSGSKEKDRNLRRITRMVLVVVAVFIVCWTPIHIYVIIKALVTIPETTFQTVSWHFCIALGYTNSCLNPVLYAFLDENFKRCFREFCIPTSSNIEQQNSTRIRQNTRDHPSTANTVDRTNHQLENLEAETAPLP
Chain of Hexokinase (Q38C41 whole entry): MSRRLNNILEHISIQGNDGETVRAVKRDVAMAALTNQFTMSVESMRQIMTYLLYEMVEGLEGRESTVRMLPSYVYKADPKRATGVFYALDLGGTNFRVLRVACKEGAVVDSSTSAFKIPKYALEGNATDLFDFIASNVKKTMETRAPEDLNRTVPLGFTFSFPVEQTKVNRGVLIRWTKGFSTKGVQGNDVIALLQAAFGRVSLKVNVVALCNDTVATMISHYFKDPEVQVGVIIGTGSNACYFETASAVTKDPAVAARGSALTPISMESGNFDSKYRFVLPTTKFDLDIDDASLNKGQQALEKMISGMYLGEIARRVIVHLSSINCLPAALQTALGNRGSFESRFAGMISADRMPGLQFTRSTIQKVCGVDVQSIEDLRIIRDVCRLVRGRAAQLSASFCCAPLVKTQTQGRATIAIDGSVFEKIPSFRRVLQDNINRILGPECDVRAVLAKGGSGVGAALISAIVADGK
Chain of Delta-type opioid receptor (P41143 whole entry): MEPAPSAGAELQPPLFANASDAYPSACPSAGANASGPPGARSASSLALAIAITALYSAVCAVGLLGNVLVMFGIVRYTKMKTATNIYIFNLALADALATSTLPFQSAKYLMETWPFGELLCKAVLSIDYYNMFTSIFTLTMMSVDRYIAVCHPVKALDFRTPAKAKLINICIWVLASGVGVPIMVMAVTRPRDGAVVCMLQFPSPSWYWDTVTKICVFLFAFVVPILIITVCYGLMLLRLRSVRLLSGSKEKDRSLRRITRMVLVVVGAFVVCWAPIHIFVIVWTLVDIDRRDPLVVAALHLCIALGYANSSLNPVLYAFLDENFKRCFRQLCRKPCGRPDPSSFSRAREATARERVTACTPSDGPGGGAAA
Chain of G-protein coupled receptor 55 (Q9Y2T6 whole entry): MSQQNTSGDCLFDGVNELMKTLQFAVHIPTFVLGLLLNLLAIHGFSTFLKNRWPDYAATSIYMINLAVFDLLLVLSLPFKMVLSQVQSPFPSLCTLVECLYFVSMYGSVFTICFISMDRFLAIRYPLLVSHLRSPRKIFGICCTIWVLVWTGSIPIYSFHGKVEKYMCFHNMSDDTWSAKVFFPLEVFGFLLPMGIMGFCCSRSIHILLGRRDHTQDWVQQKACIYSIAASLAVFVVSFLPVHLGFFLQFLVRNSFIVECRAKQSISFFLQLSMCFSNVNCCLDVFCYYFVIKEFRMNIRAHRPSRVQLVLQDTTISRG

Take `O=C(c1ccncc1)N(c1ccc2oc3c(c2c1)CCCC3)S(=O)(=O)c1ccc(F)cc1`: the EC50 in [1] was > 32 µM (inactive); on Protein RecA, 6.22 µM (active). Further, the AC50 in test [2] was 2.09 µM (active).

For the molecule `COc1ccc(S(=O)(=O)NCc2ccc(C(=O)NCCN(Cc3ccccc3)Cc3ccccc3)cc2)cc1`, the IC50 was > 32 µM (inactive) on Mu-type opioid receptor, > 32 µM (inactive) in test [3], > 20 µM (inactive) in test [4] and 13.1 µM (inactive) in [5].

With `O=C(Nc1cc(Cl)ccc1C(=O)O)c1ccc2c(c1)OCO2`, on Hexokinase, the IC50 is 9.43 µM (active).

With `O=C(c1cccc([N+](=O)[O-])c1)N1CCCC(C(=O)N2CCCCCC2)C1` (stereo not drawn), in test [6], the EC50 was 0.33 µM (active).

With `O=C(NCc1ccccc1)c1cn(CCOc2ccccc2)c2ccccc12`, the IC50 in [7] was > 100 µM (inactive); in test [8], > 100 µM (inactive); in test [9] it was 44.1 µM (active); in test [10] it was > 100 µM (inactive).
